Values of other authors as cited in US6515019B2, “Methods of providing symptomatic and prophylactic treatment for medical and neurological conditions” (priority 1996, dated 2003).

How the values were obtained:
[1] = patients on felbamate monotherapy (Faught E., Neurology 43:688-692, 1993)
[2] = add-on therapy in partial epilepsy in children (Carmant J., Pediatr 125:481-486, 1994)
neuronal cell death = settings: administered post-hoc; animal models of ischemia (Wasterlain 1993; Shuaib 1996; Wasterlain 1996)

NC(=O)OCC(COC(N)=O)c1ccccc1 [Felbamate, 2-phenyl-1,3-propanediol dicarbamate]
Weight loss [1]: 4-5%
weight loss course [2]: transient and returned to normal after twenty weeks
prevention of neuronal cell death (neuronal cell death): effective in preventing neuronal cell death
